Patent US6448450B1, “1-(3,5-dimethoxyphenyl)-2-(4-hydroxyphenyl)-ethylene for diabetes treatment” (Calyx Therapeutics, Inc., priority 1998, dated 2002)

Columns and labels:
[1] = cited from earlier work
[2] = tested on: STZ induced diabetic rats; parameters: blood glucose BEFORE / blood glucose AFTER: unit not given here; conditions: Pter. 20 mg/kg, metformin 30 mg/kg, cited from earlier work; for blood glucose AFTER: after treatment; for blood glucose BEFORE: before treatment
[3] = tested on: spontaneously diabetic (db/db) mice; test: Blood glucose in spontaneously diabetic (db/db) mice; type: in vivo; conditions: 20 mg/kg/bw/ip in propyleneglycol, within 24 hours
Experimental: Six spontaneously diabetic (db/db) mice were divided into two groups of three each. One test group receives the diphenylethylene (20 mg/kg/bw/ip) in propyleneglycol. The control group received an equal volume of propyleneglycol. Soon after the administration of the test materials, blood glucose levels were monitored at 1 hour (see FIG. 2A) and 24 hours (see FIG. 2B) after treatment. The diphenylethylene reduced the blood glucose level by over 50 percent within 24 hours, thus establishing its antihyperglycemic effect.

[4] = tested on: Streptozotocin (STZ) induced diabetic rats; test: Glucose tolerance test in STZ induced diabetic rats; type: in vivo; conditions: 20 mg/kg/bw in propyleneglycol, glucose load 2 g/kg/bw, monitored 0-180 minutes, FIG. 1
Experimental: (§1) Streptozotocin (STZ) induced diabetic rats were made by injecting STZ (40 mg/kg/bw) intravenously. Following verification of blood glucose levels after 72 hours, diabetic rats showing fasting blood glucose levels above 200 mg/dl were divided into two groups. The diphenylethylene was administered to one group in a dose of 20 mg/kg/bw in propyleneglycol. The control group received only propyleneglycol. Soon after the administration of the compound, glucose tolerance testing was conducted by a glucose load of 2 g/kg/bw and blood glucose levels were monitored at zero, 30, 60, 120 and 180 minutes by milking the tail of the rats.

[5] = tested on: STZ induced diabetic rats; test: Effect on streptozotocin-induced diabetic rats, comparison with metformin; type: in vivo; conditions: 20 mg/kg vs metformin 30 mg/kg
Experimental: as §1
The same test was conducted on STZ induced diabetic rats comparing the diphenylethylene with the commercial product metformin. The diphenylethylene was administered at a dose of 20 mg/kg and metformin was administered at the dosage of 30 mg/kg.

SMILES	water solubility [1]	% CHANGE of blood glucose [2]	blood glucose AFTER [2]	blood glucose BEFORE [2]	reduction of blood glucose level [3]	blood glucose levels versus control group after glucose load [4]	glucose levels compared with the commercial product (metformin) [5]
COc1cc(/C=C/c2ccc(O)cc2)cc(OC)c1 [pterostilbene, 3,5-dimethoxy-4′-hydroxy-trans-stilbene]	water insoluble	–	–	–	–	–	–
CN(C)C(=N)N=C(N)N [Metformin, metformin, reference compound]	–	−48%	188 ± 36	358 ± 24	–	–	–
COc1cc(/C=C/c2ccc(O)cc2)cc(OC)c1 [diphenylethylene, 1-(3,5-dimethoxyphenyl)-2-(4-hydroxyphenyl)ethylene]	–	−42%	219 ± 48	377 ± 37	over 50%	stayed consistently below the blood glucose levels in the control group	equivalent to those obtained by the commercial product
